According to PubChem BioAssay (NCI):
Values after ≈ are worked out from the molar mass of the structure shown.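 Where inhibition never reached the appropriate level, the endpoint shown equals the highest concentration tested. Otherwise, values were interpolated linearly from a five-concentration, 48-hour dose response in 96-well plates. At the GI50, growth is halved. TGI is the concentration that stops growth completely.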

Columns and labels:
Test in all cases: NCI-60 cell line screen, 48 h
EKVX NSCLC = test system: EKVX NSCLC
HL-60(TB) leukemia = test system: HL-60(TB) leukemia
HOP-62 NSCLC = test system: HOP-62 NSCLC
K-562 leukemia = test system: K-562 leukemia
MALME-3M melanoma = test system: MALME-3M melanoma
OVCAR-3 ovarian = test system: OVCAR-3 ovarian
SF-268 CNS = test system: SF-268 CNS
SK-MEL-28 melanoma = test system: SK-MEL-28 melanoma
UO-31 renal = test system: UO-31 renal
SNB-75 CNS = test system: SNB-75 CNS

Row | SMILES | TGI (EKVX NSCLC) | TGI (HL-60(TB) leukemia) | TGI (HOP-62 NSCLC) | TGI (K-562 leukemia) | TGI (MALME-3M melanoma) | TGI (OVCAR-3 ovarian) | TGI (SF-268 CNS) | TGI (SK-MEL-28 melanoma) | TGI (UO-31 renal) | GI50 (EKVX NSCLC) | GI50 (MALME-3M melanoma) | TGI (SNB-75 CNS) | GI50 (HL-60(TB) leukemia) [µg/mL] | GI50 (HOP-62 NSCLC) [µg/mL] | GI50 (K-562 leukemia) [µg/mL] | GI50 (OVCAR-3 ovarian) [µg/mL] | GI50 (SF-268 CNS) [µg/mL] | GI50 (SK-MEL-28 melanoma) [µg/mL] | GI50 (SNB-75 CNS) [µg/mL] | GI50 (UO-31 renal) [µg/mL]
1 | O=C1CC2CC3OC3[C@H]3c4cc5c(cc4C(=O)N1C23)OCO5 (stereo partly specified) | > 100 µM | > 100 µM | > 100 µM | > 100 µM | > 100 µM | > 100 µM | > 100 µM | > 100 µM | > 100 µM |  |  |  |  |  |  |  |  |  |  | 
2 | O=C(N/N=C/c1cc(Cl)cc(Cl)c1[O-])c1ccccc1O.O=C(N/N=C/c1cc(Cl)cc(Cl)c1[O-])c1ccccc1O.[Co+2] | 14.8 µM | 0.634 µM | 5.07 µM |  | 16 µM | 0.969 µM | 21.2 µM | 12.1 µM | 6.72 µM | 1.02 µM | 2.19 µM | 18.9 µM |  |  |  |  |  |  |  | 
3 | CCP(=O)(CC)C(Cl)Cl |  | > 100 µM | > 100 µM | > 100 µM |  | > 100 µM |  | > 100 µM | > 100 µM |  |  | > 100 µM |  |  |  |  |  |  |  | 
4 | CC(=O)Nc1ccc(C(=O)NN2C(=O)C(Cl)/C2=C/c2ccco2)cc1 (stereo unspecified) |  | > 100 µM | > 100 µM | > 100 µM | > 100 µM | > 100 µM | > 100 µM | > 100 µM | > 100 µM |  |  | > 100 µM |  |  |  |  |  |  |  | 
5 | CC(=O)c1c(C)nc(SSc2nc(C)c(C(C)=O)c(-c3ccc(Cl)cc3)c2C#N)c(C#N)c1-c1ccc(Cl)cc1 | > 150 µg/mL | > 150 µg/mL | > 150 µg/mL | > 150 µg/mL | > 150 µg/mL | > 150 µg/mL | > 150 µg/mL | > 150 µg/mL | > 150 µg/mL | 145 µg/mL | 50.9 µg/mL | 80.3 µg/mL | > 150 | 47.5 (≈ 78.7 µM) | 60.6 (≈ 100 µM) | 59.9 (≈ 99.2 µM) | 102 (≈ 169 µM) | 103 (≈ 171 µM) | 23.3 (≈ 38.7 µM) | 82 (≈ 136 µM)
